Series [1] is described as follows: Release profile of base vs salt forms of drugs in liquid controlled release compositions, USP Apparatus 2. It is filed as physicochemical. Conditions: liquid sustained release compositions, 65% W/W sucrose; stored 3 weeks at room temperature.
For series [2] the following is noted: cited from earlier work.
Series [3] can be described thus: Effect of sucrose concentration in dispersion medium on albuterol release, USP Apparatus 2. The following applies: alginate beads, 20% coating; stored 1 week at room temperature. It is filed as physicochemical. On the procedure: The experiment was carried out with 16 mg of albuterol bound to the alginic acid resin, with 20% coating, and 40%, 50%, 60% or 65% W/W of sucrose in the dispersion medium. First, the alginate beads were loaded with the drug albuterol, where 5% of albuterol and 5% of alginic acid were used. Albuterol and alginic acid powders were placed in a beaker, 100 ml of water was added, and the mixture was stirred until a homogenous gel was formed. Then, 70% microcrystalline cellulose and 20% lactose were placed into a bowl of a low shear mixer and pre-blended with a spatula. Then, the albuterol-alginate gel was incrementally added to the microcrystalline cellulose and lactose blend and mixed to produce a wet mass. Additional 50 ml of water was added to the beaker to wash down its sides and added to the wet mass during its blending, and the resulting wet mass was transferred into a polyethylene bag. Then, the resulting wet mass material was extruded using a dome screen attachment with 0.8 mm screen size at 55 rpm, with the wet mass being gradually added into the extruder. Subsequently, the extrudate was spheronized at 750 rpm for approximately 30 sec, and then dried overnight in a convection oven at 45° C. The beads of appropriate size (material that passed through 16 mesh screens and retained on 20 mesh screens) were selected. […]

For series [4] the following is noted: sodium alginate 0.877 g/L, 25° C. On the procedure: The studies were performed with a two compartment plexiglass dialysis cell (Hollenbeck laboratory) and having a cellulose membrane (molecular weight cutoff of 6000 Daltons) Bel-Art Products (Pequannock, N.J.) placed between the two cell compartments. […] The dialysis cell was shaken at 80 RPM in a thermostatic water bath at 25° C. until equilibrium was reached (30 h). The solution was removed from the drug compartment and the concentrations of free drug and polymer-bound drug measured by high performance liquid chromatography (“HPLC”).

Where [5] appears, read: single IR oral dose of 10 mg HC, 5 male human subjects.
Setting [6] is: total drug concentration 4.97 (M × 10^4).
[7] abbreviates: total drug concentration 5.47 (M × 10^4).
The mark [8] stands for this setting: total drug concentration 5.96 (M × 10^4).
Where [9] appears, read: total drug concentration 6.96 (M × 10^4).
Where [10] appears, read: total drug concentration 7.95 (M × 10^4).
Setting [11] is: total drug concentration 8.95 (M × 10^4).
[12] abbreviates: total drug concentration 9.94 (M × 10^4).
Where [13] appears, read: total drug concentration 14.91 (M × 10^4).
Where [14] appears, read: total drug concentration 19.88 (M × 10^4).
[15] abbreviates: total drug concentration 24.86 (M × 10^4).
[16] abbreviates: total drug concentration 30.40 (M × 10^4).
Setting [17] is: total drug concentration 41.20 (M × 10^4).
The mark [18] stands for this setting: total drug concentration 50.70 (M × 10^4).

Structures can show the parent of a compound that is named as a salt. Where two headings read alike, the source gives them in different places.

Turning to `CN[C@@H](C)[C@@H](O)c1ccccc1` (relative stereo) [pseudoephedrine, benzenemethanol, -[1-(methylamino)ethyl]-, [S—(R*,R*)]-, hydrochloride], the “rate of release of salt forms vs base forms” value in series [1] is given as “comparable”. Further, the half-life in series [2] (affected by urinary pH) is 9 to 16 h. Also, in series [2] (in vivo), the “dose excreted unchanged in the urine within 24 hours of dosing” value is on record as “up to 90%”. The Tmax following administration in series [2] (previously published studies) is 1.5 to 2.4 h.
For `CC(C)(C)NCC(O)c1ccc(O)c(CO)c1` (stereo not shown) [albuterol], the “release from beads suspended in 50%, 60% and 65% W/W of sucrose vs 40% W/W of sucrose” value in series [3] is listed as “slower”.
For `COc1ccc2c3c1O[C@H]1C(=O)CC[C@H]4[C@@H](C2)N(C)CC[C@]314` (relative stereo) [hydrocodone, morphinan-6-one, 4,5-epoxy-3-methoxy-17-methyl-,(5)-, [R—(R*,R*)]-2,3-dihydroxybutane-dioate (1:1), hydrate (2:5)], the “elimination half-life of the parent-compound” value in series [2] (in vivo) was 3.8 to 4.5 h. In addition, in series [2] (setting [5]), the Tmax result is “approximately 1.3±0.3 hours” and the “mean peak serum concentration” value is 23.6 ± 5.2 ng/mL. For the same compound, the “total excretion occurring in the first 24 hours” value in series [2] (single oral dose) is on record as “About 70%”.
As to `CN(C)CCC(c1ccc(Cl)cc1)c1ccccn1` (stereo not shown) [chlorpheniramine, 2-pyridinepropanamine, -(4-chlorophenyl)-N,N-dimethyl-, (Z)-2-butenedioate (1:1)], the “rate of release of salt forms vs base forms” value in series [1] was “comparable”. In addition, in series [2] (in vivo), the “excreted in the feces” value is on record as “Less than 1%”; the “excreted in the urine (metabolism to monodesmethyl and didesmethyl compounds)” value is recorded as “up to 26%”; the “renal elimination, share of total excretion” value is reported as “approximately 50%”.
In the case of `CC(C)NCC(O)COc1cccc2ccccc12.Cl` (stereo not shown) [propranolol, propranolol hydrochloride], the “(l/g), r/(Df)” value in series [4] (setting [6]) stood at 4.88 L/g; in series [4] (setting [7]) it was 3.97 L/g; in series [4] (setting [8]), 3.60 L/g; in series [4] (setting [9]), 3.21 L/g; in series [4] (setting [10]) it was 2.49 L/g; in series [4] (setting [11]), 1.71 L/g. Besides, the “(l/g), r/(Df)” value worked out at 1.62 L/g in series [4] (setting [12]); 1.17 L/g in series [4] (setting [13]); 0.87 L/g in series [4] (setting [14]); 0.60 L/g in series [4] (setting [15]); 0.57 L/g in series [4] (setting [16]); 0.41 L/g in series [4] (setting [17]). Also, in series [4] (setting [18]), the “(l/g), r/(Df)” value turned out to be 0.33 L/g. Moreover, the “Amount bound per gram of polymer” value in series [4] (setting [6]) is on record as 4.59 M × 10^4; in series [4] (setting [7]), 4.84 M × 10^4; in series [4] (setting [8]) it was 5.16 M × 10^4; in series [4] (setting [9]), 5.86 M × 10^4; in series [4] (setting [10]) it was 6.23 M × 10^4; in series [4] (setting [11]), 6.12 M × 10^4. In addition, the “Amount bound per gram of polymer” value in series [4] (setting [12]) is recorded as 6.66 M × 10^4; in series [4] (setting [13]), 8.61 M × 10^4; in series [4] (setting [14]), 9.81 M × 10^4; in series [4] (setting [15]), 10.73 M × 10^4; in series [4] (setting [16]), 11.49 M × 10^4; in series [4] (setting [17]) it was 12.37 M × 10^4. Besides, the “Amount bound per gram of polymer” value in series [4] (setting [18]) was found to be 12.93 M × 10^4. Further, the Bound drug concentration in series [4] (setting [6]) was 4.03 M × 10^4; in series [4] (setting [7]), 4.25 M × 10^4; in series [4] (setting [8]), 4.53 M × 10^4; in series [4] (setting [9]), 5.14 M × 10^4; in series [4] (setting [10]), 5.46 M × 10^4; in series [4] (setting [11]), 5.37 M × 10^4. The Bound drug concentration in series [4] (setting [12]) is listed as 5.83 M × 10^4; in series [4] (setting [14]) it was 8.60 M × 10^4; in series [4] (setting [15]), 9.41 M × 10^4; in series [4] (setting [16]) it was 10.08 M × 10^4; in series [4] (setting [17]), 10.84 M × 10^4; in series [4] (setting [18]), 11.34 M × 10^4. Also, the Free drug concentration in series [4] (setting [6]) came to 0.94 M × 10^4; in series [4] (setting [7]), 1.22 M × 10^4; in series [4] (setting [8]), 1.43 M × 10^4; in series [4] (setting [9]), 1.82 M × 10^4; in series [4] (setting [10]), 2.49 M × 10^4; in series [4] (setting [11]), 3.57 M × 10^4. The Free drug concentration in series [4] (setting [12]) is on record as 4.10 M × 10^4; in series [4] (setting [13]), 7.36 M × 10^4; in series [4] (setting [14]) it was 11.28 M × 10^4; in series [4] (setting [15]) it was 15.45 M × 10^4; in series [4] (setting [16]), 20.32 M × 10^4; in series [4] (setting [17]), 30.35 M × 10^4. This compound also had a Free drug concentration in series [4] (setting [18]) of 39.36 M × 10^4.

One may read the half-life as the time in which the quantity being followed falls by half.

The values above are taken from patent US20100092562A1, “SUSTAINED-RELEASE DRUG DELIVERY COMPOSITIONS AND METHODS” (priority 2002, published 2010).
